Assays:
[1] = set-up: method as in PMID 34959693, PMID 33916370; details: previous studies, ref [5],[14]; cited from earlier work
[2] = system: Wnt/β-catenin pathway target genes in T98G cells; experiment: qPCR of β-catenin and Wnt target genes, T98G; assay type: cell-based, human; details: 48 h, mRNA vs DMSO control, single agent
Experimental: (§1) Based on the MTT test, the lichen secondary metabolite concentrations allowing the survival of more than 70% of cells were chosen for the subsequent experiments. The compounds were added as follows: A-172 cells—atranorin 25 µM, caperatic acid 50 µM, physodic acid 25 µM, squamatic acid 25 µM, salazinic acid 50 µM, and lecanoric acid 100 µM; T98G cells—atranorin 50 µM, caperatic acid 100 µM, physodic acid 25 µM, squamatic acid 50 µM, salazinic acid 100 µM, and lecanoric acid 100 µM; U-138 MG cells—atranorin 25 µM, caperatic acid 50 µM, physodic acid 25 µM, squamatic acid 50 µM, salazinic acid 50 µM, and lecanoric acid 100 µM. As far as the TMZ treatment is concerned, it was added in the concentrations depending on the MGMT expression and methylation status, i.e., TMZ 30 µM was added to the A-172 cell line, and TMZ 100 µM was added to both the T98G and U-138 MG cell lines. In the case of the 2D culture, the cells were treated with the compounds 24 h after seeding, whereas, in regard to 3D culture, 5 days were needed to form spheroids. All subsequent analyses were performed 48 h after treatment.
(§2) The Universal RNA Purification Kit (EURx, Gdańsk, Poland) was used for total RNA isolation from the A-172, T98G, and U-138 MG cells, and the Revert-Aid First Strand cDNA Synthesis kit (Fermentas, Burlington, ON, Canada) was chosen for cDNA synthesis. Quantitative real-time PCR (qPCR) was performed using Hot FIREPol EvaGreen qPCR Mix Plus (Solis Biodyne, Tartu, Estonia) and LightCycler 96 (Roche Diagnostics GmbH, Mannheim, Germany). Primer sequences were previously published and their synthesis was performed at the Institute of Biochemistry and Biophysics, Warsaw, Poland. The protocol started with 15 min enzyme activation at 95 °C, followed by 40 cycles of 95 °C for 15 s; appropriate annealing temperature for 20 s; 72 °C for 40 s and the final elongation at 72 °C for 5 min. Melting curve analysis was used to confirm the generation of a single amplification product. TATA box-binding protein (TBP), a component of the DNA-binding protein complex TFIID, served as the endogenous RNA control. The results were expressed as N-fold differences in the gene expression relative to the TBP gene. The ΔΔCt method was used for fold-change calculation. All samples were analyzed in triplicate, and the reaction was repeated at least twice.

[3] = system: Wnt/β-catenin pathway target genes in A-172 cells; experiment: qPCR of β-catenin and Wnt target genes, A-172; assay type: cell-based, human; details: A-172, 48 h
Experimental: as §1, §2

[4] = system: Wnt/β-catenin pathway target genes in U-138 MG cells; experiment: qPCR of β-catenin and Wnt target genes, U-138 MG; assay type: cell-based, human; details: 48 h; for NEDD9 expression: TMZ 100 µM
Experimental: as §1, §2

[5] = system: T98G cells-derived spheroids; experiment: Microarray expression study of T98G spheroids; assay type: cell-based, human; details: 48 h, TMZ 100 µM, FC > abs. 2
Experimental: Moreover, the 3D culture of the T98G cell line was also established. The cells were cultured in ultra-low attachment microplates (Corning®, Corning, NY, USA) (1000 cell per well) to form spheroids. The standard medium was supplemented with Corning® Matrigel® Matrix for Organoid Culture (3.5%) (Corning®, Corning, NY, USA) and epidermal growth factor—EGF (10 ng/mL) (Stemcell Technologies, Vancouver, BC, Canada). Both 2D and 3D cell cultures were grown in a standard humidified incubator (Memmert, Schwabach, Germany) at 37 °C in 5% CO2 and 95% air atmosphere.
(§3) Based on the MTT test, the lichen secondary metabolite concentrations allowing the survival of more than 70% of cells were chosen for the subsequent experiments. The compounds were added as follows: A-172 cells—atranorin 25 µM, caperatic acid 50 µM, physodic acid 25 µM, squamatic acid 25 µM, salazinic acid 50 µM, and lecanoric acid 100 µM; T98G cells—atranorin 50 µM, caperatic acid 100 µM, physodic acid 25 µM, squamatic acid 50 µM, salazinic acid 100 µM, and lecanoric acid 100 µM; U-138 MG cells—atranorin 25 µM, caperatic acid 50 µM, physodic acid 25 µM, squamatic acid 50 µM, salazinic acid 50 µM, and lecanoric acid 100 µM. […]
The obtained CEL files were further analyzed using the R statistical language and Bioconductor package, including the relevant Bioconductor libraries. […]

[6] = system: U-138 MG cells; set-up: method as in PMID 33916370; details: taken from the literature, ref [14]; read-out: IC50 [uM] ± SEM U-138 MG; cited from earlier work
[7] = system: U-138 MG cells; experiment: Apoptosis, caspase-3/7 and 7-AAD flow cytometry, U-138 MG; assay type: cell-based, human; details: 48 h
Experimental: as §1
(§4) The fluorescent-based analysis of apoptosis using Muse® Caspase-3/7 Kit was performed in order to analyze the percentage of live, early, and late apoptotic; total apoptotic; and dead cells in A-172, T98G, and U-138 MG GBM cells treated with lichen secondary metabolites. The principle of the method relies on the measurement of the activity of executioner caspases, i.e., caspase-3 and caspase-7, as well as analyzing the integrity of the cell membrane with the use of a dead cell marker 7-AAD. Cell seeding and treatment followed the same protocol as for cell cycle or ROS generation analysis, while the subsequent procedures were performed according to the manufacturer’s recommendations.

[8] = system: A375 melanoma cancer cells; set-up: method as in PMID 28012710; details: ref [33]; cited from earlier work
[9] = Parallel artificial membrane permeability assay for the blood-brain barrier (PAMPA-BBB); assay type: in vitro ADME; details: pH 7.4, 4 h, 37 °C, mean ± SEM, n = 3, Pe > 1.5 high, < 1.5 low permeation predicted, read-out: Pe × 10^−6
Experimental: The parallel artificial membrane permeability assay (PAMPA) for the blood-brain barrier (BBB) (Pion Inc., Billerica, MA, USA) was used to analyze whether the lichen secondary metabolites tested in this study were able to cross the BBB. The stock solutions (5 mg/mL) of tested compounds were prepared using DMSO. Next, the donor solution (24.75 μg/mL) using Prisma buffer (pH = 7.4; Prisma HT, Pion Inc., Billerica, MA, USA) were made. Firstly, 180 μL of the donor solution were added to the donor wells. Then the filter membranes were coated with 5 μL BBB-1 lipid solution (Pion Inc., Billerica, MA, USA) and the acceptor wells were filled with 200 μL BSB (Brain Sink Buffer, Pion Inc., Billerica, MA, USA). The plates were sandwiched together and incubated for 4 h at 37 °C (Thermo Scientific MaxQ 4450, Waltham, MA, USA). The results were determined by spectroscopic analysis (Multiskan GO microplate reader, Waltham, MA, USA), with the appropriate wavelength for a given compound (240 nm for […] salazinic acid, 250 nm for atranorin and squamatic acid, 263 nm for physodic acid, and 270 nm for lecanoric acid). […] Pe is the effective permeability coefficient (cm/s), VD-donor volume, VA-acceptor volume, Ceq-equilibrium concentration, Ceq=CD×VD+CA×VA/VD+VA , S-membrane area, and t-incubation time (in seconds). […] Samples were analyzed in triplicate, and the average was reported.

[10] = system: T98G cells; experiment: Apoptosis, caspase-3/7 and 7-AAD flow cytometry, T98G; assay type: cell-based, human
Experimental: as §1, §4

[11] = system: A-172 cells; details: taken from the literature, ref [14]; read-out: IC50 [uM] ± SEM A-172; cited from earlier work
[12] = system: T98G cells; experiment: ROS (superoxide) generation, flow cytometry, T98G; assay type: cell-based, human; details: 48 h
Experimental: as §3
The intracellular detection of superoxide radicals was detected by flow cytometric analysis after the staining with dihydroethidium, using The Muse® Oxidative Stress Kit (Merck, Darmstadt, Germany). Briefly, 100,000 cells per well were seeded on 6-well plates and after a 24 h incubation they were treated with the analyzed lichen secondary metabolites in the concentrations allowing >70% of cell survival; cells treated with DMSO were used as the negative control. […] The obtained data were evaluated using Muse® Analysis Software ver. […]

[13] = system: T98G cells; details: taken from the literature, ref [14]; read-out: IC50 [uM] ± SEM T98G; cited from earlier work
[14] = mRNA vs DMSO control, single agent, (TMZ 30 µM)
[15] = mRNA vs DMSO control, single agent

Question: With `CC(=O)C1=C(O)C=C2Oc3c(C(C)=O)c(O)c(C)c(O)c3[C@]2(C)C1=O` [(−)-usnic acid] as the compound, how does the “ability to cross the blood-brain barrier” value [1] read?
Answer: The value was “can cross the blood-brain barrier”.

Question: For `Cn1ncnc2c(=O)n(C)c(=O)nc1-2` [PKF118-310, reference compound], which “c-MYC expression” value [2] is on record?
Answer: Its value is “did not diminish”.

Question: What about the “BIRC5 expression” value ([2]; TMZ 100 µM) of the same compound?
Answer: The value was “downregulated”.

Question: What about the “c-MYC expression” value [3, 14] of the same compound?
Answer: The value was “did not diminish”.

Question: For `COc1cc(C)c(C(=O)Oc2cc(C)c(C(=O)O)c(O)c2)c(O)c1` [evernic acid], which “ability to cross the blood-brain barrier” value [1] is on record?
Answer: Its value is “can cross the blood-brain barrier”.

Question: With `Cn1nnc2c(C(N)=O)ncn2c1=O` [TMZ, temozolomide] as the compound, how does the “NEDD9 expression” value [4, 15] read?
Answer: The value was “downregulated”.

Question: What about the “Axin2 expression” value ([2]; TMZ 100 µM) of the same compound?
Answer: The value was “downregulation”.

Question: And the “BIRC5 expression” value ([2]; TMZ 100 µM)?
Answer: Its value is “downregulation”.

Question: What about the “Axin2 expression” value [3, 14] of the same compound?
Answer: Its value is “upregulated”.

Question: And the “c-MYC expression” value [3, 14]?
Answer: The value was “upregulated”.

Question: And the “number of significantly downregulated genes vs control” value [5]?
Answer: The value was 46.

Question: What about the “number of significantly upregulated genes vs control” value [5] of the same compound?
Answer: Its value is 15.

Question: With `CCCCCC(=O)Cc1cc(O)cc2c1C(=O)Oc1cc(O)c(C(=O)O)c(CCCCC)c1O2` [Physodic acid] as the compound, how does the IC50 [6] read?
Answer: Its IC50 is 45.7 ± 4.2 µM.

Question: What about the “effect on apoptosis” value [7] of the same compound?
Answer: The value was “anti-apoptotic effect”.

Question: What about the “apoptosis induction” value [8] of the same compound?
Answer: Its value is “activated an apoptotic process”.

Question: What about the Papp at 4 h, 24.75 µg/mL [9] of the same compound?
Answer: Its Papp at 4 h, 24.75 µg/mL is 3.9 ± 0.2 ×10⁻⁶ cm/s.

Question: And the “number of apoptotic cells vs control” value ([10]; 48 h, topotecan 100 nM)?
Answer: The value was “significant increase”.

Question: What about the apoptotic cells detected ([10]; 48 h treatment) of the same compound?
Answer: The apoptotic cells detected was ~80%.

Question: What about the “ability to cross the blood-brain barrier” value [1] of the same compound?
Answer: Its value is “can cross the blood-brain barrier”.

Question: What about the “expression of the Wnt target genes” value ([4]; co-treatment with TMZ 100 µM) of the same compound?
Answer: The value was “huge downregulatory effect”.

Question: What about the “Axin2 expression” value [4, 15] of the same compound?
Answer: The value was “decreased”.

Question: What about the “CCND1 expression” value [4, 15] of the same compound?
Answer: Its value is “downregulated CCND1 expression by around half”.

Question: What about the “NEDD9 expression” value [4, 15] of the same compound?
Answer: Its value is “upregulated”.

Question: And the “c-MYC expression” value [2]?
Answer: The value was “downregulated”.

Question: And the “BIRC5 expression” value ([2]; TMZ 100 µM)?
Answer: The value was “downregulated”.

Question: What about the IC50 [11] of the same compound?
Answer: The IC50 was 42.4 ± 1.25 µM.

Question: And the “oxidative stress (superoxide) induction” value [12]?
Answer: The value was “induce oxidative stress”.

Question: What about the IC50 [13] of the same compound?
Answer: Its IC50 is 50.6 ± 1.09 µM.

Question: And the “CCND1 expression” value ([3]; co-treatment with TMZ 30 µM)?
Answer: The value was “upregulation”.

Question: What about the “NEDD9 expression” value [3, 15] of the same compound?
Answer: Its value is “downregulated”.

— PMC8997913, “Lichen Secondary Metabolites Inhibit the Wnt/β-Catenin Pathway in Glioblastoma Cells and Improve the Anticancer Effects of Temozolomide” (Cells, 2022)
